The text below walks through data of patent US6436925B1, “Substituted benzamides, their production and their use as cysteine protease inhibitors” (Abbott Laboratories, priority 1998, dated 2002).

This test concerns the target T1, calpain I (human μ-calpain) (Homo sapiens, UniProt P07384).
T1 construct: Human μ-calpain is isolated from erythrocytes; from tissue; host or cells: human erythrocytes
T1 sequence (P07384 1-714): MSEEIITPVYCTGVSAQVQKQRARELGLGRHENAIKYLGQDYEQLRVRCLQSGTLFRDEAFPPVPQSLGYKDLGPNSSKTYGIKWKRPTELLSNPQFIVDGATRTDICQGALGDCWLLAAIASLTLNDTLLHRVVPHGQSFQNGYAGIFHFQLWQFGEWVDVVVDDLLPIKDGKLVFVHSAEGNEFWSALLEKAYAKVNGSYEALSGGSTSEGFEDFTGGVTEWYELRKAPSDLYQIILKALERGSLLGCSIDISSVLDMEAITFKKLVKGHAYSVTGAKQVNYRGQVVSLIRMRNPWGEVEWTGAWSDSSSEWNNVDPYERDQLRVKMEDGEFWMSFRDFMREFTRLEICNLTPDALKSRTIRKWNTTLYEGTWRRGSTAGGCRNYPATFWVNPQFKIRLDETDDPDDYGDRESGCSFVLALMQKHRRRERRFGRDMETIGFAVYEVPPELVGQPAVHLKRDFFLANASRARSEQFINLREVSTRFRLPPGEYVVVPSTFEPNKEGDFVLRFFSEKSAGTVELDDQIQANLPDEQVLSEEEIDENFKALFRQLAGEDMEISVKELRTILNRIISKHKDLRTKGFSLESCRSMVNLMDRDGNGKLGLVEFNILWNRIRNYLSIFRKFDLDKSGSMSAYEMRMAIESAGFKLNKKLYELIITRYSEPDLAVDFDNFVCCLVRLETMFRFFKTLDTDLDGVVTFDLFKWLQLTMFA
T1 sequence (P04632 1-268 partner): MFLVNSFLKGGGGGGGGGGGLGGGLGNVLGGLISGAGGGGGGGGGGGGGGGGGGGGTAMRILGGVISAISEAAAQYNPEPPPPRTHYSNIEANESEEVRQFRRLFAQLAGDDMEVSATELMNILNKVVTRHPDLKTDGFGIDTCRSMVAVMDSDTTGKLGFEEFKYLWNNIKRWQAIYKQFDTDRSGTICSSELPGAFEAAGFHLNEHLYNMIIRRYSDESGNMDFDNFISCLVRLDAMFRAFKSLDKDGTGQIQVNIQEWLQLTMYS
The test is described as follows: Calpain I and II assay (fluorogenic substrate Suc-Leu-Tyr-AMC). The test is classed as biochemical. The protocol:
The inhibitory effect of the benzamides I has been determined using enzyme assays known from the literature, determining as criterion of effect a concentration of the inhibitor at which 50% of the enzyme activity is inhibited (=IC50). The amides I were measured in this way for their inhibitory effect on calpain I, calpain II and cathepsin B.
The testing of the inhibitory properties of calpain inhibitors takes place in buffer with 50 mM tris-HCl, pH 7.5; 0.1 M NaCl; 1 mM dithiotreithol [sic]; 0.11 mM CaCl2, using the fluorogenic calpain substrate Suc-Leu-Tyr-AMC (25 mM dissolved in DMSO, Bachem/switzerland). Human μ-calpain is isolated from erythrocytes, and enzyme with a purity >95%, assessed by SDS-PAGE, Western blot analysis and N-terminal sequencing, is obtained after more [sic] chromatographic steps (DEAE-Sepharose, phenyl-Sepharose, Superdex 200 and blue Sepharose). The fluorescence of the cleavage product 7-amino-4-methylcoumarin (AMC) is followed in a Spex Fluorolog fluorimeter at λex=380 nm and λem =460 nm. […]
In a test mixture, 10 μl of substrate (250 μM final) and then 10 μl of μ-calpain (2 μg/ml final, i.e. 18 nM) are added to a 1 ml cuvette containing buffer. The calpain-mediated cleavage of the substrate is measured for from 15 to 20 min. […] Ki values are determined using the classical equation for reversible inhibition: […]

Take `O=C(N[C@@H](Cc1ccccc1)C(=O)CNS(=O)(=O)c1ccccc1)c1cccc(NS(=O)(=O)c2ccc3ccccc3c2)c1` [Example 1, 3(2-Naphthylsulfonamido)-N(3(S)-4-phenyl-1-phenylsulfonamidobutan-2-on-3-yl)benzamide]: the inhibition (commonly the percentage by which the read-out fell short of the control) at 1 µM (at a concentration of 1 μM) is greater than 50%. Also, the Ki (commonly the equilibrium dissociation constant of an inhibitor or competing ligand from its target) (calpain I, inferred from more than 50% inhibition at 1 μM) was less than 1000 nM.
